Laboratory results: ChEMBL document CHEMBL3813635, “Development of new Malt1 inhibitors and probes” (Bioorg Med Chem, 2016)
Active and inactive are the calls of the source. The calls are words filed in the database; no cut-off is given here.

What was measured:
[1] = biological target: T1, Mucosa-associated lymphoid tissue lymphoma translocation protein 1 (Homo sapiens) (UniProt Q9UDY8); assay: (§1) Inhibition of recombinant Malt1 (unknown origin) at 10 to 1000 uM preincubated for 1 hr followed by (S)-1-((6-(4-(4-(5,5-Difluoro-3,7-bis(4-methoxyphenyl)-5H-4l4,5l4-dipyrrolo[1,2-c:20,10-f][1,3,2]diazaborinin-10-yl)butyl)-1H-1,2,3-triazol-1-yl)hexanoyl)-L-valyl-L-arginyl)-N-((S)-1-fluoro-6-guanidino-2-oxohexan-3-yl)pyrrolidine-2-carboxamide addition and incubated for 1 hr by SDS-PAGE based competitive activity-based protein profiling assay
T1 sequence (whole entry): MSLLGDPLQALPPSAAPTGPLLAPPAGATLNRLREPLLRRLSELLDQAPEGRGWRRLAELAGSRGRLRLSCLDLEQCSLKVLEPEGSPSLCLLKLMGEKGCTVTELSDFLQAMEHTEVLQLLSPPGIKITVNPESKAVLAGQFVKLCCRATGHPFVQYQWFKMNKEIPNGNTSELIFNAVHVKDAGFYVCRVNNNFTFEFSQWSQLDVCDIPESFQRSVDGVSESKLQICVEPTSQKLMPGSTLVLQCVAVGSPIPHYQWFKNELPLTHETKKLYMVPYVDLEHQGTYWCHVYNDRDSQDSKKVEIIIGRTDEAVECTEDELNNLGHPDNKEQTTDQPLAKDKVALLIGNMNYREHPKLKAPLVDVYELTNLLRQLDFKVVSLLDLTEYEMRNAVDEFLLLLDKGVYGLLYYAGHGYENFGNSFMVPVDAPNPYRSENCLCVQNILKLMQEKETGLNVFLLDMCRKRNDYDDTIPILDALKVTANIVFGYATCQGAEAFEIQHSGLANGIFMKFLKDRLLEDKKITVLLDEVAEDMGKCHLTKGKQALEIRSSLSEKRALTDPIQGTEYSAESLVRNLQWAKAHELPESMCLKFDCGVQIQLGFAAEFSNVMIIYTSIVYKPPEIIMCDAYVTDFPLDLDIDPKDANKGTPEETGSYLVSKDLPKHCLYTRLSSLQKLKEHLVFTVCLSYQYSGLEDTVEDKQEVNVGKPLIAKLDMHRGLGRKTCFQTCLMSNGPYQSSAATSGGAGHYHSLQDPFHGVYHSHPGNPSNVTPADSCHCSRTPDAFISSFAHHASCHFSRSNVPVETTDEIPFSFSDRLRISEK

[2] = biological target: T2, Mucosa-associated lymphoid tissue lymphoma translocation protein 1 (Homo sapiens, UniProt Q9UDY8); assay: as §1
T2 sequence (Q9UDY8 whole entry): T1 sequence (whole entry)

[3] = biological target: T1, Mucosa-associated lymphoid tissue lymphoma translocation protein 1 (Homo sapiens); assay: as §1, with “at 1” for “at 10”, “to 100” for “to 1000”
[4] = biological target: T2, Mucosa-associated lymphoid tissue lymphoma translocation protein 1; assay: as above
[5] = biological target: T1, Mucosa-associated lymphoid tissue lymphoma translocation protein 1 (Homo sapiens); assay: Binding affinity to recombinant GST-Malt1 (325 to 760 residues) (unknown origin) assessed as protein labeling at 1 uM after 1 hr by SDS-PAGE based activity-based protein profiling assay
[6] = biological target: T1, Mucosa-associated lymphoid tissue lymphoma translocation protein 1 (Homo sapiens); assay: Binding affinity to Malt1 in phorbol 12-myristate 13-acetate/ionomycin stimulated human Jurkat T cells assessed as protein labeling at 1 uM after 50 mins by SDS-PAGE based activity-based protein profiling assay; type: cell-based
[7] = biological target: T1, Mucosa-associated lymphoid tissue lymphoma translocation protein 1 (Homo sapiens); assay: Binding affinity to Flag-tagged Malt1 (unknown origin) overexpressed in human Jurkat T cells assessed as protein labeling at 1 uM after 50 mins by Western blot analysis; type: cell-based
[8] = test system: Jurkat; assay: Binding affinity to Malt1 C/A mutant (unknown origin) overexpressed in human Jurkat T cells assessed as protein labeling at 1 uM after 50 mins by Western blot analysis; type: cell-based
[9] = biological target: T1, Mucosa-associated lymphoid tissue lymphoma translocation protein 1 (Homo sapiens); assay: Binding affinity to recombinant GST-Malt1 (325 to 760 residues) (unknown origin) assessed as protein labeling at 0.05 to 0.5 uM after 1 hr by SDS-PAGE based activity-based protein profiling assay
[10] = biological target: T1, Mucosa-associated lymphoid tissue lymphoma translocation protein 1 (Homo sapiens); assay: Binding affinity to Malt1 in phorbol 12-myristate 13-acetate/ionomycin stimulated human Jurkat T cells assessed as protein labeling at 1 to 3 uM after 50 mins by SDS-PAGE based activity-based protein profiling assay; type: cell-based
[11] = biological target: T1, Mucosa-associated lymphoid tissue lymphoma translocation protein 1 (Homo sapiens); assay: Binding affinity to recombinant GST-Malt1 (325 to 760 residues) (unknown origin) assessed as protein labeling at 0.1 to 1 uM after 1 hr by SDS-PAGE based activity-based protein profiling assay
[12] = biological target: T1, Mucosa-associated lymphoid tissue lymphoma translocation protein 1 (Homo sapiens); assay: Binding affinity to Malt1 in phorbol 12-myristate 13-acetate/ionomycin stimulated human Jurkat T cells assessed as protein labeling at 3 uM after 50 mins by SDS-PAGE based activity-based protein profiling assay; type: cell-based

Compound | pIC50(app) [1] | IC50 [2] [µM] | other results
COCCOc1nc(-c2cccc(F)c2)n(-c2ccc(NC(=O)CCl)cc2)n1 | 4.05 | 88 | 
COCCOc1nc(-c2ccc3c(c2)OCO3)n(-c2ccc(NC(=O)CCl)cc2)n1 | 4.06 | 88 | 
COCCOc1nc(-c2ccccc2)n(-c2ccc(NC(=O)CCl)cc2)n1 | 4.01 | 98 | 
COCCOc1nc(-c2ccc(F)c(F)c2)n(-c2ccc(NC(=O)CCl)cc2)n1 | 4.59 | 26 | 
COCCOc1nc(-c2ccc(C(F)(F)F)cc2)n(-c2ccc(NC(=O)CCl)cc2)n1 | 4.66 | 22 | 
COCCOc1nc(-c2cccc(C)c2)n(-c2ccc(NC(=O)CCl)cc2)n1 | 3.56 | 278 | 
COCCOc1nc(-c2ccc(Cl)c(Cl)c2)n(-c2ccc(NC(=O)CCl)cc2)n1 |  |  | pIC50(app) [3]: 5.11; IC50 [4]: 7.8 µM
COCCOc1nc(-c2cccc(Br)c2)n(-c2ccc(NC(=O)CCl)cc2)n1 | 4.78 | 17 | 
COCCOc1nc(-c2ccc(Cl)cc2)n(-c2ccc(NC(=O)CCl)cc2)n1 | 5.81 | 1.6 | pIC50(app) [3]: 5.52; IC50 [4]: 3 µM
CC1=CC(C)=[N+]2C1=Cc1ccc(CCC(=O)N[C@@H](CC(C)C)C(=O)N[C@@H](CCCNC(=N)N)C(=O)N[C@@H](CO)C(=O)N[C@@H](CCCNC(=N)N)C(=O)COC(=O)c3c(C)cccc3C)n1[B-]2(F)F |  |  | Activity [5]: Active; Activity [6]: Active; Activity [7]: Active; Activity [8]: inactive
COCCOc1nc(-c2ccc(C)cc2)n(-c2ccc(NC(=O)CCl)cc2)n1 | 5.05 | 9 | pIC50(app) [3]: 5.09; IC50 [4]: 8.2 µM
COCCOc1nc(-c2ccc(Br)cc2)n(-c2ccc(NC(=O)CCl)cc2)n1 | 5.82 | 1.5 | pIC50(app) [3]: 5.68; IC50 [4]: 2.1 µM
COCCOc1nc(-c2cccc(Cl)c2)n(-c2ccc(NC(=O)CCl)cc2)n1 | 4.57 | 26 | 
COCCOc1nc(-c2ccc(OC)cc2)n(-c2ccc(NC(=O)CCl)cc2)n1 | 4.35 | 45 | 
CN1\C(=C/C=C/C=C/C2=[N+](CCCCCC(=O)NCCOc3nc(-c4ccc(Cl)c(Cl)c4)n(-c4ccc(NC(=O)CCl)cc4)n3)c3ccccc3C2(C)C)C(C)(C)c2ccccc21 |  |  | Activity [9]: inactive; Activity [5]: Active; Activity [7]: Active; Activity [8]: Active; Activity [10]: inactive
COCCOc1nc(-c2ccc(F)cc2)n(-c2ccc(NC(=O)CCl)cc2)n1 | 5.17 | 6.8 | pIC50(app) [3]: 4.99; IC50 [4]: 10 µM
COCCOc1nc(-c2ccc(-c3ccccc3)cc2)n(-c2ccc(NC(=O)CCl)cc2)n1 | 4.66 | 22 | 
COCCOc1nc(-c2ccc(C)c(C)c2)n(-c2ccc(NC(=O)CCl)cc2)n1 | 4.82 | 15 | 
COCCOc1nc(-c2cccc(C(F)(F)F)c2)n(-c2ccc(NC(=O)CCl)cc2)n1 | 4.03 | 93 | 
C=CC(=O)Nc1ccc(-n2nc(OCCOC)nc2-c2ccc(Cl)c(Cl)c2)cc1 | 4.47 | 34 | 
COCCOc1nc(-c2cccc(OC)c2)n(-c2ccc(NC(=O)CCl)cc2)n1 | 3.71 | 194 | 
COc1ccc(C2=[N+]3C(=C(CCCCc4cn(CCCCCC(=O)N[C@H](C(=O)N[C@@H](CCCNC(=N)N)C(=O)N5CCC[C@H]5C(=O)N[C@@H](CCCNC(=N)N)C(=O)CF)C(C)C)nn4)c4ccc(-c5ccc(OC)cc5)n4[B-]3(F)F)C=C2)cc1 |  |  | Activity [11]: Active; Activity [6]: inactive; Activity [12]: Active; Activity [7]: Active; Activity [8]: inactive
COCCOc1nc(-c2ccc(OC)c(OC)c2)n(-c2ccc(NC(=O)CCl)cc2)n1 | 4.92 | 12 | 
